Patent US6352958B1, “Cycloimido-substituted benzofused heterocyclic herbicides” (FMC Corporation, priority 1997, dated 2002)

Key:
Assay type in all cases: in vivo
[1] = tested on: blackgrass (Aloepecurus myosuroides); assay: Postemergence herbicidal activity, blackgrass; conditions: rate of application 0.3 Kg/Ha, rated after 12-17 days
[2] = tested on: soybean (Glycine max var. Winchester); assay: Postemergence herbicidal activity, soybean; conditions: rate of application 0.3 Kg/Ha, rated after 12-17 days
[3] = tested on: Johnsongrass (Sorghum halepense); assay: Postemergence herbicidal activity, johnsongrass; conditions: rate of application 0.3 Kg/Ha, rated after 12-17 days
[4] = tested on: common chickweed (Stellaria media); assay: Preemergence herbicidal activity, chickweed; conditions: Rate of Application 0.3 Kg/Ha, examined after 12-17 days
[5] = tested on: morningglory (Ipomea lacunosa or Ipomea hederacea); assay: Preemergence herbicidal activity, morningglory; conditions: Rate of Application 0.3 Kg/Ha, examined after 12-17 days
[6] = tested on: velvetleaf (Abutilon theophrasti); assay: Preemergence herbicidal activity, velvetleaf; conditions: Rate of Application 0.3 Kg/Ha, examined after 12-17 days
[7] = tested on: velvetleaf (Abutilon theophrasti); assay: Postemergence herbicidal activity, velvetleaf; conditions: rate of application 0.3 Kg/Ha, rated after 12-17 days
[8] = tested on: field corn (Zea mays var. Pioneer 3732); assay: Postemergence herbicidal activity, corn; conditions: rate of application 0.3 Kg/Ha, rated after 12-17 days
[9] = tested on: green foxtail (Setaria viridis); assay: Postemergence herbicidal activity, green foxtail; conditions: rate of application 0.3 Kg/Ha, rated after 12-17 days
[10] = tested on: morningglory (Ipomea lacunosa or Ipomea hederacea); assay: Postemergence herbicidal activity, morningglory; conditions: rate of application 0.3 Kg/Ha, rated after 12-17 days
[11] = tested on: common chickweed (Stellaria media); assay: Postemergence herbicidal activity, chickweed; conditions: rate of application 0.3 Kg/Ha, rated after 12-17 days
[12] = tested on: green foxtail (Setaria viridis); assay: Preemergence herbicidal activity, green foxtail; conditions: Rate of Application 0.3 Kg/Ha, examined after 12-17 days
[13] = tested on: common cocklebur (Xanthium strumarium L.); assay: Preemergence herbicidal activity, cocklebur; conditions: Rate of Application 0.3 Kg/Ha, examined after 12-17 days
[14] = tested on: wheat (Triticum aestivum var. Lew); assay: Postemergence herbicidal activity, wheat; conditions: rate of application 0.3 Kg/Ha, rated after 12-17 days
[15] = tested on: field corn (Zea mays var. Pioneer 3732); assay: Preemergence herbicidal activity, corn; conditions: Rate of Application 0.3 Kg/Ha, examined after 12-17 days
[16] = tested on: Johnsongrass (Sorghum halepense); assay: Preemergence herbicidal activity, johnsongrass; conditions: Rate of Application 0.3 Kg/Ha, examined after 12-17 days
[17] = tested on: soybean (Glycine max var. Winchester); assay: Preemergence herbicidal activity, soybean; conditions: Rate of Application 0.3 Kg/Ha, examined after 12-17 days
[18] = tested on: wheat (Triticum aestivum var. Lew); assay: Preemergence herbicidal activity, wheat; conditions: Rate of Application 0.3 Kg/Ha, examined after 12-17 days
[19] = tested on: common cocklebur (Xanthium strumarium L.); assay: Postemergence herbicidal activity, cocklebur; conditions: rate of application 0.3 Kg/Ha, rated after 12-17 days
[20] = tested on: blackgrass (Aloepecurus myosuroides); assay: Preemergence herbicidal activity, blackgrass; conditions: Rate of Application 0.3 Kg/Ha, examined after 12-17 days

Cn1c(C(F)(F)F)cc(=O)n(-c2c(F)cc(Cl)c3[nH]c(C(F)(F)Cl)nc23)c1=O [Compound 366]
Postemergence herbicidal activity (% control) ALOMY [1]: 30% | Postemergence herbicidal activity (% control) SOY [2]: 70% | Postemergence herbicidal activity (% control) SORHA [3]: 50% | PREEMERGENCE HERBICIDAL ACTIVITY (% CONTROL) STEME [4]: 0% | PREEMERGENCE HERBICIDAL ACTIVITY (% CONTROL) IPOSS [5]: 20% | PREEMERGENCE HERBICIDAL ACTIVITY (% CONTROL) ABUTH [6]: 70% | Postemergence herbicidal activity (% control) ABUTH [7]: 95% | Postemergence herbicidal activity (% control) CRN [8]: 80% | Postemergence herbicidal activity (% control) SETVI [9]: 50% | Postemergence herbicidal activity (% control) IPOSS [10]: 80% | Postemergence herbicidal activity (% control) STEME [11]: 30% | PREEMERGENCE HERBICIDAL ACTIVITY (% CONTROL) SETVI [12]: 50% | PREEMERGENCE HERBICIDAL ACTIVITY (% CONTROL) XANPE [13]: 10% | Postemergence herbicidal activity (% control) WHT [14]: 30% | PREEMERGENCE HERBICIDAL ACTIVITY (% CONTROL) CRN [15]: 0% | PREEMERGENCE HERBICIDAL ACTIVITY (% CONTROL) SORHA [16]: 40% | PREEMERGENCE HERBICIDAL ACTIVITY (% CONTROL) SOY [17]: 10% | PREEMERGENCE HERBICIDAL ACTIVITY (% CONTROL) WHT [18]: 10% | Postemergence herbicidal activity (% control) XANPE [19]: 100% | PREEMERGENCE HERBICIDAL ACTIVITY (% CONTROL) ALOMY [20]: 0%

CCCc1nc2c(-n3c(=O)cc(C(F)(F)F)n(C)c3=O)c(F)cc(Cl)c2o1 [Compound 26]
Postemergence herbicidal activity (% control) ALOMY [1]: 80% | Postemergence herbicidal activity (% control) SOY [2]: 96% | Postemergence herbicidal activity (% control) SORHA [3]: 80% | PREEMERGENCE HERBICIDAL ACTIVITY (% CONTROL) STEME [4]: 100% | PREEMERGENCE HERBICIDAL ACTIVITY (% CONTROL) IPOSS [5]: 100% | PREEMERGENCE HERBICIDAL ACTIVITY (% CONTROL) ABUTH [6]: 100% | Postemergence herbicidal activity (% control) ABUTH [7]: 100% | Postemergence herbicidal activity (% control) CRN [8]: 80% | Postemergence herbicidal activity (% control) SETVI [9]: 100% | Postemergence herbicidal activity (% control) IPOSS [10]: 100% | Postemergence herbicidal activity (% control) STEME [11]: 80% | PREEMERGENCE HERBICIDAL ACTIVITY (% CONTROL) SETVI [12]: 100% | PREEMERGENCE HERBICIDAL ACTIVITY (% CONTROL) XANPE [13]: 100% | Postemergence herbicidal activity (% control) WHT [14]: 60% | PREEMERGENCE HERBICIDAL ACTIVITY (% CONTROL) CRN [15]: 90% | PREEMERGENCE HERBICIDAL ACTIVITY (% CONTROL) SORHA [16]: 100% | PREEMERGENCE HERBICIDAL ACTIVITY (% CONTROL) SOY [17]: 100% | PREEMERGENCE HERBICIDAL ACTIVITY (% CONTROL) WHT [18]: 90% | Postemergence herbicidal activity (% control) XANPE [19]: 100% | PREEMERGENCE HERBICIDAL ACTIVITY (% CONTROL) ALOMY [20]: 95%

COCc1nc2c(-n3c(=O)cc(C(F)(F)F)n(C)c3=O)c(F)cc(Cl)c2[nH]1 [Compound 370]
Postemergence herbicidal activity (% control) ALOMY [1]: 100% | Postemergence herbicidal activity (% control) SOY [2]: 100% | Postemergence herbicidal activity (% control) SORHA [3]: 100% | PREEMERGENCE HERBICIDAL ACTIVITY (% CONTROL) STEME [4]: 100% | PREEMERGENCE HERBICIDAL ACTIVITY (% CONTROL) IPOSS [5]: 100% | PREEMERGENCE HERBICIDAL ACTIVITY (% CONTROL) ABUTH [6]: 100% | Postemergence herbicidal activity (% control) ABUTH [7]: 100% | Postemergence herbicidal activity (% control) CRN [8]: 100% | Postemergence herbicidal activity (% control) SETVI [9]: 100% | Postemergence herbicidal activity (% control) IPOSS [10]: 100% | Postemergence herbicidal activity (% control) STEME [11]: 100% | PREEMERGENCE HERBICIDAL ACTIVITY (% CONTROL) SETVI [12]: 100% | PREEMERGENCE HERBICIDAL ACTIVITY (% CONTROL) XANPE [13]: 100% | Postemergence herbicidal activity (% control) WHT [14]: 95% | PREEMERGENCE HERBICIDAL ACTIVITY (% CONTROL) CRN [15]: 95% | PREEMERGENCE HERBICIDAL ACTIVITY (% CONTROL) SORHA [16]: 100% | PREEMERGENCE HERBICIDAL ACTIVITY (% CONTROL) SOY [17]: 100% | PREEMERGENCE HERBICIDAL ACTIVITY (% CONTROL) WHT [18]: 100% | Postemergence herbicidal activity (% control) XANPE [19]: 100% | PREEMERGENCE HERBICIDAL ACTIVITY (% CONTROL) ALOMY [20]: 90%

CCOC(=O)CCc1nc2c(-n3c(=O)cc(C(F)(F)F)n(C)c3=O)c(F)cc(Cl)c2[nH]1 [Compound 372]
Postemergence herbicidal activity (% control) ALOMY [1]: 100% | Postemergence herbicidal activity (% control) SOY [2]: 100% | Postemergence herbicidal activity (% control) SORHA [3]: 100% | PREEMERGENCE HERBICIDAL ACTIVITY (% CONTROL) STEME [4]: 100% | PREEMERGENCE HERBICIDAL ACTIVITY (% CONTROL) IPOSS [5]: 100% | PREEMERGENCE HERBICIDAL ACTIVITY (% CONTROL) ABUTH [6]: 100% | Postemergence herbicidal activity (% control) ABUTH [7]: 100% | Postemergence herbicidal activity (% control) CRN [8]: 100% | Postemergence herbicidal activity (% control) SETVI [9]: 100% | Postemergence herbicidal activity (% control) IPOSS [10]: 100% | Postemergence herbicidal activity (% control) STEME [11]: 100% | PREEMERGENCE HERBICIDAL ACTIVITY (% CONTROL) SETVI [12]: 100% | PREEMERGENCE HERBICIDAL ACTIVITY (% CONTROL) XANPE [13]: 100% | Postemergence herbicidal activity (% control) WHT [14]: 100% | PREEMERGENCE HERBICIDAL ACTIVITY (% CONTROL) CRN [15]: 95% | PREEMERGENCE HERBICIDAL ACTIVITY (% CONTROL) SORHA [16]: 80% | PREEMERGENCE HERBICIDAL ACTIVITY (% CONTROL) SOY [17]: 100% | PREEMERGENCE HERBICIDAL ACTIVITY (% CONTROL) WHT [18]: 90% | Postemergence herbicidal activity (% control) XANPE [19]: 100% | PREEMERGENCE HERBICIDAL ACTIVITY (% CONTROL) ALOMY [20]: 80%
